Values joined by “and” are separate entries in the source; they are usually repeats but may differ in a detail not shown here. Equal values may be shown once. Inconclusive results and toxic doses are left out.
Tested on: BDF1 mice, B16 melanoma ip, median survival T/C
Test: NCI In Vivo Anticancer Drug Screen. Data for tumor model B16 Melanoma (intraperitoneal) in B6D2F1 (BDF1) mice
Conditions: endpoint: median survival time, higher = longer survival
Procedure, shortened: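 Each result divides a survival or tumor-size measurement in the compound-treated group by the same measurement in the vehicle group.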

[1] = dose: 12.5 mg/kg/injection, schedule: Q01DX009 (ip), vehicle: saline
[2] = dose: 25.0 mg/kg/injection, schedule: Q01DX009 (ip), vehicle: saline
[3] = dose: 100.0 mg/kg/injection, schedule: Q01DX009 (ip), vehicle: Klucel (hydroxypropylcellulose) (HPC)
[4] = dose: 200.0 mg/kg/injection, schedule: Q01DX009 (ip), vehicle: Klucel (hydroxypropylcellulose) (HPC)
[5] = dose: 400.0 mg/kg/injection, schedule: Q01DX009 (ip), vehicle: Klucel (hydroxypropylcellulose) (HPC)
[6] = dose: 12.5 mg/kg/injection, schedule: Q01DX009 (ip), vehicle: saline with Tween-80
[7] = dose: 25.0 mg/kg/injection, schedule: Q01DX009 (ip), vehicle: saline with Tween-80
[8] = dose: 100.0 mg/kg/injection, schedule: Q01DX009 (ip), vehicle: saline
[9] = dose: 200.0 mg/kg/injection, schedule: Q01DX009 (ip), vehicle: saline
[10] = dose: 400.0 mg/kg/injection, schedule: Q01DX009 (ip), vehicle: saline
[11] = dose: 2.0 mg/kg/injection, schedule: Q01DX009 (ip), vehicle: saline with Tween-80
[12] = dose: 50.0 mg/kg/injection, schedule: Q01DX009 (ip), vehicle: Klucel (hydroxypropylcellulose) (HPC)
[13] = dose: 50.0 mg/kg/injection, schedule: Q01DX009 (ip), vehicle: saline
[14] = dose: 12.5 mg/kg/injection, schedule: Q04DX003 (ip), vehicle: saline
[15] = dose: 25.0 mg/kg/injection, schedule: Q04DX003 (ip), vehicle: saline
[16] = dose: 100.0 mg/kg/injection, schedule: Q04DX003 (ip), vehicle: saline with Tween-80

With `CCCC[S+](CCCC)CC(=O)c1ccc(-c2ccccc2)cc1` the T/C (dose: 1.56 mg/kg/injection, schedule: Q01DX009 (ip), vehicle: saline) was 110 % of control, the T/C (dose: 3.13 mg/kg/injection, schedule: Q01DX009 (ip), vehicle: saline) was 96 % of control and the T/C (dose: 6.25 mg/kg/injection, schedule: Q01DX009 (ip), vehicle: saline) was 95 % of control. For the same molecule, the T/C [1] was 94 % of control and the T/C [2] was 105 % of control.

With `C1CCN(CN2CCCCC2)CC1` the T/C [1] was 97 % of control and the T/C [2] was 93 % of control.

`CN(C)c1ccc(C=C2c3ccccc3-c3ccccc32)cc1` was tested, and the T/C [3] was 106 % of control, the T/C [4] was 103 % of control and the T/C [5] was 106 % of control.

In the case of `CN(C)N=Nc1ccc(S(=O)(=O)Nc2ncccn2)cc1`, the T/C [6] is reported as 108 % of control, the T/C (dose: 14.7 mg/kg/injection, schedule: Q01DX009 (ip), vehicle: saline with Tween-80) is reported as 110 % of control and the T/C (dose: 22.0 mg/kg/injection, schedule: Q01DX009 (ip), vehicle: saline with Tween-80) is reported as 116 % of control. For the same molecule, the T/C [7] was 123 % of control, the T/C (dose: 33.0 mg/kg/injection, schedule: Q01DX009 (ip), vehicle: saline with Tween-80) was 106 % of control and 123 % of control and the T/C (dose: 75.0 mg/kg/injection, schedule: Q01DX009 (ip), vehicle: saline with Tween-80) was 115 % of control.

With `Oc1ccc(C2C=CCC2)cc1C1C=CCC1` (centres undefined) the T/C [3] was 99 % of control and 100 % of control, the T/C [4] was 89 % of control and 96 % of control and the T/C [5] was 100 % of control and 107 % of control.

With `COc1ccc(C(C#N)CC(=O)c2ccc3c(c2)OCO3)cc1OC` (centres undefined) the T/C [8] was 103 % of control, the T/C [9] was 100 % of control and the T/C [10] was 100 % of control.

With `Nc1nc(=S)c2[nH]cnc2[nH]1` the T/C (dose: 0.25 mg/kg/injection, schedule: Q01DX009 (ip), vehicle: saline sonified) was 100 % of control, the T/C (dose: 0.25 mg/kg/injection, schedule: Q01DX009 (ip), vehicle: suspension in saline) was 109 % of control and the T/C (dose: 0.5 mg/kg/injection, schedule: Q01DX009 (ip), vehicle: saline sonified) was 112 % of control and 115 % of control. The T/C (dose: 0.5 mg/kg/injection, schedule: Q01DX009 (ip), vehicle: suspension in saline) was 120 % of control, the T/C (dose: 1.0 mg/kg/injection, schedule: Q01DX009 (ip), vehicle: saline sonified) was 100 % of control and the T/C (dose: 1.0 mg/kg/injection, schedule: Q01DX009 (ip), vehicle: suspension in saline) was 105 % of control. For the same molecule, the T/C (dose: 2.0 mg/kg/injection, schedule: Q01DX009 (ip), vehicle: saline sonified) was 95 % of control and 105 % of control, the T/C [11] was 111 % of control and the T/C (dose: 2.0 mg/kg/injection, schedule: Q01DX009 (ip), vehicle: suspension in saline) was 107 % of control.

With `Cc1cc(C)c(NC(=O)c2cccc(C(=O)Nc3c(C)cc(C)cc3C)c2)c(C)c1` the T/C [3] was 93 % of control, the T/C [4] was 86 % of control and the T/C [5] was 90 % of control.

In the case of `O=C(O)/C=C/C(=O)Nc1ccc(N=Nc2ccccc2)cc1`, the T/C [12] is reported as 104 % of control, the T/C [3] is reported as 105 % of control and the T/C [4] is reported as 97 % of control.

With `COc1cc2cc3c4ccccc4cc[n+]3c(C)c2cc1OC` (tested in a mixture with another compound) the T/C (dose: 5.0 mg/kg/injection, schedule: Q01DX009 (ip), vehicle: Klucel (hydroxypropylcellulose) (HPC)) was 99 % of control, the T/C (dose: 10.0 mg/kg/injection, schedule: Q01DX009 (ip), vehicle: Klucel (hydroxypropylcellulose) (HPC)) was 99 % of control and the T/C (dose: 20.0 mg/kg/injection, schedule: Q01DX009 (ip), vehicle: Klucel (hydroxypropylcellulose) (HPC)) was 95 % of control.

For `CNC(=O)Oc1ccc2c(c1)OCO2`, the T/C [13] was 95 % of control, the T/C [8] was 114 % of control and the T/C [9] was 107 % of control.

In the case of `CC(C)OCc1c(N)nc(=S)[nH]c1C(=O)O`, the T/C [2] is reported as 92 % of control and the T/C [13] is reported as 86 % of control.

In the case of `COc1cccc(NC(=O)Nc2cccc(Cl)c2)c1`, the T/C [3] is reported as 103 % of control, the T/C [4] is reported as 96 % of control and the T/C [5] is reported as 103 % of control.

With `COc1cc2c(cc1OC)C1CC(=O)C(CC(C)C)CN1CC2` (centres undefined) the T/C (dose: 6.25 mg/kg/injection, schedule: Q01DX009 (ip), vehicle: Klucel (hydroxypropylcellulose) (HPC)) was 100 % of control, the T/C (dose: 25.0 mg/kg/injection, schedule: Q01DX009 (ip), vehicle: Klucel (hydroxypropylcellulose) (HPC)) was 100 % of control and the T/C [12] was 95 % of control. The T/C [3] was 97 % of control.

`CC(N)(Cc1ccc(O)c(O)c1)C(=O)O` (centres undefined) was tested, and the T/C [13] was 115 % of control, the T/C [8] was 100 % of control and the T/C [9] was 107 % of control. The T/C [10] was 110 % of control.

For `OC(CC(O)(C(F)(F)F)C(F)(F)F)CC(O)(C(F)(F)F)C(F)(F)F`, the T/C (dose: 6.25 mg/kg/injection, schedule: Q01DX009 (ip), vehicle: saline with Tween-80) was 114 % of control, the T/C (dose: 6.25 mg/kg/injection, schedule: Q04DX003 (ip), vehicle: saline) was 92 % of control and the T/C [6] was 97 % of control. For the same molecule, the T/C [14] was 97 % of control, the T/C [7] was 108 % of control and the T/C [15] was 105 % of control.

In the case of `CCC[CH2][Sn]1([CH2]CCC)[O]C(=O)C[S]1`, the T/C (dose: 1.0 mg/kg/injection, schedule: Q01DX009 (ip), vehicle: saline with Tween-80) is reported as 103 % of control and the T/C [11] is reported as 101 % of control.

In the case of `CC(C)NNC(=O)c1ccncc1`, the T/C [1] is reported as 107 % of control, the T/C [2] is reported as 94 % of control and 101 % of control and the T/C [13] is reported as 95 % of control and 101 % of control. The T/C [8] was 110 % of control and the T/C [9] was 92 % of control and 104 % of control.

With `NN1C(=O)c2ccc3c4c(ccc(c24)C1=O)CC3` the T/C (dose: 50.0 mg/kg/injection, schedule: Q01DX009 (ip), vehicle: suspension in saline) was 104 % of control, the T/C (dose: 100.0 mg/kg/injection, schedule: Q01DX009 (ip), vehicle: suspension in saline) was 102 % of control and the T/C (dose: 200.0 mg/kg/injection, schedule: Q01DX009 (ip), vehicle: suspension in saline) was 97 % of control. For the same molecule, the T/C (dose: 400.0 mg/kg/injection, schedule: Q01DX009 (ip), vehicle: suspension in saline) was 102 % of control.

For `COCCOC1=C(N2CC2)C(=O)C(OCCOC)=C(N2CC2)C1=O`, the T/C (dose: 0.5 mg/kg/injection, schedule: Q01DX009 (ip), vehicle: saline) was 102 % of control and 123 % of control, the T/C (dose: 1.0 mg/kg/injection, schedule: Q01DX009 (ip), vehicle: saline) was 110 % of control and the T/C (dose: 2.0 mg/kg/injection, schedule: Q01DX009 (ip), vehicle: saline) was 94 % of control. For the same molecule, the T/C (dose: 4.0 mg/kg/injection, schedule: Q01DX009 (ip), vehicle: saline) was 150 % of control.

`Cc1cc(=O)[nH]c(N/N=C/c2ccccc2)n1` was tested, and the T/C (dose: 100.0 mg/kg/injection, schedule: Q04DX003 (ip), vehicle: gum acacia) was 93 % of control, the T/C (dose: 200.0 mg/kg/injection, schedule: Q04DX003 (ip), vehicle: gum acacia) was 88 % of control and the T/C (dose: 400.0 mg/kg/injection, schedule: Q04DX003 (ip), vehicle: gum acacia) was 88 % of control.

For `C1=CC2(OCCO2)C2CC=CC3(OCCO3)C2C1` (centres undefined), the T/C [12] was 104 % of control and the T/C [3] was 97 % of control.

For `CC(C)(C)n1cc(C(=O)c2ccccc2)cc1-c1ccccc1`, the T/C [16] was 97 % of control, the T/C (dose: 200.0 mg/kg/injection, schedule: Q04DX003 (ip), vehicle: saline with Tween-80) was 100 % of control and the T/C (dose: 400.0 mg/kg/injection, schedule: Q04DX003 (ip), vehicle: saline with Tween-80) was 100 % of control.

With `CCOCCc1ccccn1` the T/C [14] was 106 % of control, the T/C [15] was 100 % of control and the T/C (dose: 50.0 mg/kg/injection, schedule: Q04DX003 (ip), vehicle: saline) was 96 % of control.

With `CCN(CC)c1ccc(N)cc1` the T/C (dose: 5.0 mg/kg/injection, schedule: Q01DX009 (ip), vehicle: saline) was 109 % of control, the T/C (dose: 10.0 mg/kg/injection, schedule: Q01DX009 (ip), vehicle: saline) was 95 % of control and the T/C (dose: 20.0 mg/kg/injection, schedule: Q01DX009 (ip), vehicle: saline) was 95 % of control.

For `COC(=O)Nc1nc2ccc(C(=O)c3cccs3)cc2[nH]1`, the T/C (dose: 20.0 mg/kg/injection, schedule: Q01DX015 (ip), vehicle: saline) was 97 % of control, the T/C (dose: 50.0 mg/kg/injection, schedule: Q04DX003 (ip), vehicle: other) was 103 % of control and the T/C (dose: 50.0 mg/kg/injection, schedule: Q04DX003 (ip), vehicle: saline with Tween-80) was 180 % of control. The T/C (dose: 50.0 mg/kg/injection, schedule: Q05DX005 (ip), vehicle: saline) was 165 % of control, the T/C (dose: 60.0 mg/kg/injection, schedule: Q05DX005 (ip), vehicle: saline) was 195 % of control and the T/C (dose: 70.0 mg/kg/injection, schedule: Q05DX005 (ip), vehicle: saline) was 191 % of control. For the same molecule, the T/C (dose: 75.0 mg/kg/injection, schedule: Q04DX003 (ip), vehicle: other) was 121 % of control and the T/C [16] was 211 % of control.
